Data set [1] concerns H9/HIV-IIIB in HT46c cells. Kind of data set: Anti-HIV assay in vitro: inhibition of HIV replication, focal immunoassay (reduction in foci). The class given is cell-based, HIV-1. The following applies: for anti-HIV activity: in words, tested at 0.01, 0.1, 1.0, 5.0 and 20 μM; for reduction in foci at 5 μM: GIL compared with BDGA. Here is the method:
1,1'-bisdeoxygossypol (BDG), 1,1'-bisdeoxygossylic acid (BDGA), 8-deoxyhemigossypol (DHG) and 8-deoxyhemigossylic acid (DHGA) were synthesized and tested for their ability to inhibit the replication of HIV in vitro. The EC50 for BDGA was <1 μM and its threshold cytotoxicity was approximately 20 μM. […] Like BDGA, the Ec50 for GIL was <1 μM. […] BDG, on the other hand, was ineffective at 1 μM and destroyed >80% of the cell monolayer at 5 μM.
(§1) The anti-HIV assay used was based on a published procedure (J.Virol. 62:3779-3788, 1988) using HT46c (HeLaT4+) cells as host cells for the H9/HIV-III8 strain of the HIV-1 virus. The cells were seeded into 6-well plates, 5×10^4 cells/well, in RPMI 1640 with 10% FBS and allowed to attach overnight. After treatment of the wells with DEAE-dextran, stock virus was added at a concentration that produces 100 -200 foci/well on day 3 in positive control wells. Test compounds were added, and plates incubated for 3 days at 37° C., 5% CO2. Monolayers were fixed with methanol and wells analyzed with a focal immunoassay (FIA). The primary reagent used in the FIA was a polyclonal antibody preparation of sera from AIDS patients. The secondary reagent was a goat anti-human IgG antibody tagged with horseradish peroxidase. The substrate was 3-amino-9-ethylcarbazole in sodium acetate buffer with hydrogen peroxide. Each compound was tested at concentrations of 0.01, 0.1, 1.0, 5.0 and 20 μM. GIL was tested as a standard for comparison.

For data set [2], the system named is HT46c (HeLaT4+) cells. Kind of data set: Cytotoxicity in the anti-HIV assay: detectable changes in cell morphology or loss of monolayer adherence to the culture plate. The class given is cell-based. The following applies: for cytotoxicity: in words. Here is the method:
(§2) 1,1'-bisdeoxygossypol (BDG), 1,1'-bisdeoxygossylic acid (BDGA), 8-deoxyhemigossypol (DHG) and 8-deoxyhemigossylic acid (DHGA) were synthesized and tested for their ability to inhibit the replication of HIV in vitro.
as §1, with “After” for “The anti-HIV assay used was based on a published procedure (J.Virol. 62:3779-3788, 1988) using HT46c (HeLaT4+) cells as host cells for the H9/HIV-III8 strain of the HIV-1 virus. The cells were seeded into 6-well plates, 5×10^4 cells/well, in RPMI 1640 with 10% FBS and allowed to attach overnight. After”

Assay in data set [3]: as above
The format is cell-based. The conditions noted are these: human, ht46c cells; below threshold = no detectable changes in cell morphology or loss of monolayer adherence. Here is the method:
as §2
as §1, with “After” for “The anti-HIV assay used was based on a published procedure (J.Virol. 62:3779-3788, 1988) using HT46c (HeLaT4+) cells as host cells for the H9/HIV-III8 strain of the HIV-1 virus. The cells were seeded into 6-well plates, 5×10^4 cells/well, in RPMI 1640 with 10% FBS and allowed to attach overnight. After”

The conditions of data set [4]: previously shown in similar assays (Pharmacol.Res.); cited from earlier work.
Data set [5] has as its system HIV. The conditions noted are these: previously found, in vitro; cited from earlier work.

Entries after “also recorded” stand apart in the source; their conditions may differ.

The text below walks through data of patent US5936120A, “Deoxygossylic compounds” (University of New Mexico, priority 1997, dated 1999).

Turning to `Cc1cc2c(C(C)C)c(O)c(O)c(C=O)c2cc1-c1cc2c(C=O)c(O)c(O)c(C(C)C)c2cc1C` [BDG, 6,6',7,7'-Tetrahydroxy-3,3'-dimethyl-5,5'-bis(1-methylethyl)[2,2'-binaphthalene]-8,8'-dicarboxaldehyde], the “anti-HIV activity at 1 μM” value in data set [1] (1 μM) is given as “ineffective”. Besides, the anti-HIV activity result in data set [1] is recorded as “less effective against HIV”. Moreover, the “destruction of the cell monolayer at 5 μM” value in data set [2] (5 μM) is more than 80%. The cytotoxicity entry in data set [2] is “much more cytotoxic than BDGA”.
On to `Cc1cc2c(C(C)C)c(O)c(O)c(C(=O)O)c2cc1-c1cc2c(C(=O)O)c(O)c(O)c(C(C)C)c2cc1C` [BDGA, 6,6',7,7'-Tetrahydroxy-3,3'-dimethyl-5,5'-bis(1-methylethyl)[2,2'-binaphthalene]-8,8'-dicarboxylic Acid], for which, in data set [1], the “reduction in foci at 5 μM” value is reported as “same reduction in foci” and the anti-HIV activity result is “approximately as effective as GIL”. Also, the “toxicity at 5.0 μM” value in data set [2] is on record as “No toxicity was noted”. In data set [2] (20 μM), the “monolayer destruction at 20 μM” value is listed as “Some signs of monolayer destruction”.
For the molecule `Cc1ccc2c(C=O)c(O)c(O)c(C(C)C)c2c1` [DHG, 2,3-dihydroxy-6-methyl-4-(1-methylethyl)-1-naphthaldehyde], the anti-HIV activity result in data set [1] is “some anti-HIV activity; also recorded: less active”. Moreover, the cytotoxicity entry in data set [2] was “more cytotoxic”. Further, in data set [3], the MCC turned out to be 54 µM.
As to `Cc1ccc2c(C(=O)O)c(O)c(O)c(C(C)C)c2c1` [DHGA, 2,3-dihydroxy-6-methyl-4-(1-methylethyl)-1-naphthoic Acid], the “effect on viral replication at 20 μM” value in data set [1] (even at 20 μM) is recorded as “no observable effect on viral replication”. The anti-HIV activity result in data set [1] is reported as “ineffective against HIV”. The “effect on cell morphology at 20 μM” value in data set [2] (even at 20 μM) is “no observable effect on viral replication or cell morphology”. Further, the cytotoxicity entry in data set [2] is listed as “very low cytotoxicity”.
On to `Cc1cc2c(C(C)C)c(O)c(O)c3c2c(c1-c1c(C)cc2c(C(C)C)c(O)c(O)c4c2c1OC4=N)OC3=N` [GIL, gossylic iminolactone], for which the “cytotoxicity relative to gossypol” value in data set [4] is recorded as “less cytotoxic than gossypol”. In addition, the “reduction in foci at 5 μM” value in data set [1] is on record as “same reduction in foci”. For the same molecule, in data set [2], the “toxicity at 5.0 μM” value was “No toxicity was noted”. The “anti-HIV activity relative to gossypol” value in data set [5] is given as “more active; also recorded: more effective than gossypol”.
